Assay results taken from the NIST ThermoML archive (doi:10.1021/je800110r).
± gives the expanded uncertainty stated by the source.

Conditions: 323.14 K, Liquid, Vibrating tube method

CCCCCCCCCC [decane]
Conditions	mass density [kg/m3]
13785 kPa	718.8 ± 2
13804 kPa	718.9 ± 2
13828 kPa	718.9 ± 2
14191 kPa	719.3 ± 2
14209 kPa	719.3 ± 2
14225 kPa	719.4 ± 2
14243 kPa	719.2 ± 2
14258 kPa	719.3 ± 2
14293 kPa	719.3 ± 2
14335 kPa	719.3 ± 2
14443 kPa	719.4 ± 2
14465 kPa	719.4 ± 2
14487 kPa	719.5 ± 2
14504 kPa	719.5 ± 2
14521 kPa	719.5 ± 2
14541 kPa	719.5 ± 2
14562 kPa	719.5 ± 2
14576 kPa	719.5 ± 2
14589 kPa	719.5 ± 2
14598 kPa	719.5 ± 2
14609 kPa	719.6 ± 2
14666 kPa	719.6 ± 2
14766 kPa	719.7 ± 2
14778 kPa	719.6 ± 2
14789 kPa	719.6 ± 2
14800 kPa	719.6 ± 2
14810 kPa	719.7 ± 2
14824 kPa	719.7 ± 2
14837 kPa	719.7 ± 2
14850 kPa	719.7 ± 2
14864 kPa	719.8 ± 2
14876 kPa	719.8 ± 2
14889 kPa	719.7 ± 2
14900 kPa	719.7 ± 2
14913 kPa	719.8 ± 2
14923 kPa	719.9 ± 2
14931 kPa	719.9 ± 2
14941 kPa	719.8 ± 2
14955 kPa	719.8 ± 2
14964 kPa	719.8 ± 2
14976 kPa	719.9 ± 2
14990 kPa	719.9 ± 2
15000 kPa	719.8 ± 2
15350 kPa	720.2 ± 2
15364 kPa	720.1 ± 2
15378 kPa	720.2 ± 2
15435 kPa	720.1 ± 2
15447 kPa	720.2 ± 2
15460 kPa	720.2 ± 2
15476 kPa	720.3 ± 2
15490 kPa	720.3 ± 2
15507 kPa	720.3 ± 2
15517 kPa	720.2 ± 2
15527 kPa	720.3 ± 2
15542 kPa	720.4 ± 2
15556 kPa	720.2 ± 2
15567 kPa	720.3 ± 2
15581 kPa	720.4 ± 2
15594 kPa	720.3 ± 2
15610 kPa	720.3 ± 2
15624 kPa	720.4 ± 2
15639 kPa	720.3 ± 2
15655 kPa	720.4 ± 2
15673 kPa	720.4 ± 2
15738 kPa	720.4 ± 2
15754 kPa	720.6 ± 2
15765 kPa	720.5 ± 2
15776 kPa	720.5 ± 2
15787 kPa	720.5 ± 2
15805 kPa	720.5 ± 2
15818 kPa	720.6 ± 2
15829 kPa	720.6 ± 2
15844 kPa	720.6 ± 2
15853 kPa	720.6 ± 2
15866 kPa	720.5 ± 2
15877 kPa	720.5 ± 2
15890 kPa	720.5 ± 2
15904 kPa	720.6 ± 2
15915 kPa	720.5 ± 2
15926 kPa	720.6 ± 2
15940 kPa	720.6 ± 2
15955 kPa	720.6 ± 2
15970 kPa	720.6 ± 2
15982 kPa	720.7 ± 2
16000 kPa	720.7 ± 2
16012 kPa	720.6 ± 2
16029 kPa	720.7 ± 2
16041 kPa	720.8 ± 2
16056 kPa	720.6 ± 2
16067 kPa	720.7 ± 2
16079 kPa	720.8 ± 2
16091 kPa	720.8 ± 2
16100 kPa	720.9 ± 2
16110 kPa	720.7 ± 2
16124 kPa	720.7 ± 2
16136 kPa	720.8 ± 2
16148 kPa	720.7 ± 2
16160 kPa	720.7 ± 2
16175 kPa	720.8 ± 2
16192 kPa	720.9 ± 2
16206 kPa	720.8 ± 2
16223 kPa	720.9 ± 2
16235 kPa	720.9 ± 2
16249 kPa	720.9 ± 2
16265 kPa	720.8 ± 2
16281 kPa	720.9 ± 2
16305 kPa	720.9 ± 2
16323 kPa	720.9 ± 2
16485 kPa	721.1 ± 2
16497 kPa	721 ± 2
16509 kPa	721.1 ± 2
16526 kPa	721 ± 2
16540 kPa	721.1 ± 2
16554 kPa	721.1 ± 2
16570 kPa	721.1 ± 2
16583 kPa	721 ± 2
16614 kPa	721.1 ± 2
16658 kPa	721.2 ± 2
17010 kPa	721.4 ± 2
17025 kPa	721.5 ± 2
17272 kPa	721.7 ± 2
17288 kPa	721.6 ± 2
17305 kPa	721.6 ± 2
17323 kPa	721.8 ± 2
17337 kPa	721.8 ± 2
17350 kPa	721.7 ± 2
17369 kPa	721.7 ± 2
17387 kPa	721.7 ± 2
17405 kPa	721.7 ± 2
17419 kPa	721.7 ± 2
17442 kPa	721.7 ± 2
17455 kPa	721.9 ± 2
17473 kPa	721.8 ± 2
17491 kPa	721.9 ± 2
17510 kPa	721.8 ± 2
17532 kPa	721.9 ± 2
17546 kPa	721.9 ± 2
17561 kPa	721.9 ± 2
17579 kPa	721.9 ± 2
17593 kPa	721.9 ± 2
17612 kPa	722 ± 2
17645 kPa	721.9 ± 2
17659 kPa	722 ± 2
17677 kPa	722 ± 2
17694 kPa	722 ± 2
17715 kPa	721.9 ± 2
17731 kPa	722 ± 2
17751 kPa	722 ± 2
17772 kPa	722 ± 2
17788 kPa	722.1 ± 2
17805 kPa	722.1 ± 2
17824 kPa	722.1 ± 2
17838 kPa	722.1 ± 2
17860 kPa	722.2 ± 2
17879 kPa	722.1 ± 2
17901 kPa	722.3 ± 2
17922 kPa	722.1 ± 2
17942 kPa	722.2 ± 2
17955 kPa	722.2 ± 2
17972 kPa	722.2 ± 2
17992 kPa	722.3 ± 2
18009 kPa	722.3 ± 2
18023 kPa	722.3 ± 2
18038 kPa	722.2 ± 2
18057 kPa	722.1 ± 2
18072 kPa	722.3 ± 2
18087 kPa	722.2 ± 2
18109 kPa	722.2 ± 2
18131 kPa	722.3 ± 2
18155 kPa	722.2 ± 2
18169 kPa	722.3 ± 2
18192 kPa	722.4 ± 2
18209 kPa	722.4 ± 2
18232 kPa	722.4 ± 2
18247 kPa	722.4 ± 2
18269 kPa	722.4 ± 2
18292 kPa	722.4 ± 2
18310 kPa	722.4 ± 2
18335 kPa	722.4 ± 2
18351 kPa	722.5 ± 2
18374 kPa	722.5 ± 2
18390 kPa	722.5 ± 2
18405 kPa	722.5 ± 2
18423 kPa	722.6 ± 2
18443 kPa	722.5 ± 2
18464 kPa	722.6 ± 2
18487 kPa	722.7 ± 2
18500 kPa	722.6 ± 2
18518 kPa	722.7 ± 2
18543 kPa	722.7 ± 2
18564 kPa	722.7 ± 2
18583 kPa	722.6 ± 2
18598 kPa	722.7 ± 2
18616 kPa	722.6 ± 2
18637 kPa	722.7 ± 2
18660 kPa	722.7 ± 2
18684 kPa	722.7 ± 2
18703 kPa	722.7 ± 2
18735 kPa	722.7 ± 2
18758 kPa	722.7 ± 2
18795 kPa	722.8 ± 2
18816 kPa	722.9 ± 2
18846 kPa	722.9 ± 2
18905 kPa	722.9 ± 2
18921 kPa	722.9 ± 2
18940 kPa	722.9 ± 2
18959 kPa	723 ± 2
18983 kPa	722.9 ± 2
19005 kPa	723.1 ± 2
19027 kPa	723 ± 2
19043 kPa	723 ± 2
19062 kPa	723.1 ± 2
19263 kPa	723.2 ± 2
19308 kPa	723.2 ± 2
19354 kPa	723.3 ± 2
19373 kPa	723.3 ± 2
19390 kPa	723.4 ± 2
19410 kPa	723.3 ± 2
19436 kPa	723.3 ± 2
19461 kPa	723.4 ± 2
19485 kPa	723.4 ± 2
19509 kPa	723.4 ± 2
19574 kPa	723.4 ± 2
19594 kPa	723.5 ± 2
19637 kPa	723.4 ± 2
19655 kPa	723.6 ± 2
19672 kPa	723.5 ± 2
19720 kPa	723.6 ± 2
19741 kPa	723.5 ± 2
19760 kPa	723.6 ± 2
19777 kPa	723.6 ± 2
19795 kPa	723.6 ± 2
19813 kPa	723.6 ± 2
19840 kPa	723.6 ± 2
19867 kPa	723.7 ± 2
19891 kPa	723.7 ± 2
19912 kPa	723.8 ± 2
19936 kPa	723.7 ± 2
19957 kPa	723.7 ± 2
20009 kPa	723.8 ± 2
20031 kPa	723.8 ± 2
20049 kPa	723.7 ± 2
20080 kPa	723.8 ± 2
20105 kPa	723.9 ± 2
20127 kPa	723.9 ± 2
20154 kPa	723.9 ± 2
20176 kPa	723.9 ± 2
20191 kPa	723.9 ± 2
20210 kPa	724 ± 2
20235 kPa	723.9 ± 2
20257 kPa	724 ± 2
20286 kPa	724 ± 2
20304 kPa	723.8 ± 2
20323 kPa	724 ± 2
20345 kPa	724 ± 2
20363 kPa	724 ± 2
20389 kPa	724.1 ± 2
20431 kPa	724.2 ± 2
20462 kPa	724 ± 2
20482 kPa	724.2 ± 2
20504 kPa	724.1 ± 2
20520 kPa	724.2 ± 2
20562 kPa	724.2 ± 2
20584 kPa	724.3 ± 2
20607 kPa	724.2 ± 2
20630 kPa	724.1 ± 2
20675 kPa	724.4 ± 2
21120 kPa	724.6 ± 2
21147 kPa	724.5 ± 2
21168 kPa	724.7 ± 2
21192 kPa	724.6 ± 2
21219 kPa	724.7 ± 2
21366 kPa	724.8 ± 2
